Here are results for 14 molecules from patent US20120220562A1, “Anti-Viral Compounds” (ABBOTT LABAORATORIES, priority 2011, published 2012).

This assay deals with HCV 1b-Con1 replicon. Kind of assay: HCV 1b-Con1 replicon assay in the presence of 5% FBS. To be noted: Hepatitis C virus. The assay is classed as cell-based.
On to `COC(=O)N[C@H](C(=O)N1C[C@@H](F)C[C@H]1c1nc2cc([C@H]3CC[C@H](c4ccc5[nH]c([C@@H]6C[C@H](F)CN6C(=O)[C@@H](NC(=O)OC)C(C)C)nc5c4)N3c3ccc(F)cc3)ccc2[nH]1)C(C)C` [Example 3.9, methyl {(2S)-1-[(2S,4S)-4-fluoro-2-{5-[(2R,5R)-5-{2-[(2S,4S)-4-fluoro-1-{(2S)-2-[(methoxycarbonyl)amino]-3-methylbutanoyl}pyrrolidin-2-yl]-1H-benzimidazol-5-yl}-1-(4-fluorophenyl)pyrrolidin-2-yl]-1H-benzimidazol-2-yl}pyrrolidin-1-yl]-3-methyl-1-oxobutan-2-yl}carbamate], for which the EC50 is 100 to 1000 pM.

In the case of `COC(=O)N[C@H](C(=O)N1CCC[C@H]1c1nc2cc([C@H]3CC[C@H](c4ccc5[nH]c([C@@H]6CCCN6C(=O)[C@@H](NC(=O)OC)C(C)C)nc5c4)N3c3ccc(N4CCC(c5ccccc5)CC4)cc3)ccc2[nH]1)C(C)C` [Example 4.25, methyl {(2S)-1-[(2S)-2-(5-{(2R,5R)-5-{2-[(2S)-1-{(2S)-2-[(methoxycarbonyl)amino]-3-methylbutanoyl}pyrrolidin-2-yl]-1H-benzimidazol-5-yl}-1-[4-(4-phenylpiperidin-1-yl)phenyl]pyrrolidin-2-yl}-1H-benzimidazol-2-yl)pyrrolidin-1-yl]-3-methyl-1-oxobutan-2-yl}carbamate], the EC50 was in the range of 100 to 1000 pM.

As to `COC(=O)N[C@H](C(=O)N1CCC[C@H]1c1nc2cc([C@H]3CC[C@H](c4ccc5[nH]c([C@@H]6CCCN6C(=O)[C@@H](NC(=O)OC)C(C)C)nc5c4)N3c3ccnc(F)c3)ccc2[nH]1)C(C)C` [Example 1.4, methyl {(2S)-1-[(2S)-2-{5-[(2R,5R)-1-(2-fluoropyridin-4-yl)-5-{2-[(2S)-1-{(2S)-2-[(methoxycarbonyl)amino]-3-methylbutanoyl}pyrrolidin-2-yl]-1H-benzimidazol-5-yl}pyrrolidin-2-yl]-1H-benzimidazol-2-yl}pyrrolidin-1-yl]-3-methyl-1-oxobutan-2-yl}carbamate], the EC50 is 100 to 1000 pM.

`COC(=O)N[C@H](C(=O)N1CCC[C@H]1c1nc2cc([C@H]3CC[C@H](c4ccc5[nH]c([C@@H]6CCCN6C(=O)[C@@H](NC(=O)OC)C(C)C)nc5c4)N3c3ccc(-c4ncco4)cc3)ccc2[nH]1)C(C)C` [Example 2.1, methyl {(2S)-1-[(2S)-2-(5-{(2R,5R)-5-{2-[(2S)-1-{(2S)-2-[(methoxycarbonyl)amino]-3-methylbutanoyl}pyrrolidin-2-yl]-1H-benzimidazol-5-yl}-1-[4-(1,3-oxazol-2-yl)phenyl]pyrrolidin-2-yl}-1H-benzimidazol-2-yl)pyrrolidin-1-yl]-3-methyl-1-oxobutan-2-yl}carbamate]: the EC50 was below 100 pM.

As to `COC(=O)N[C@H](C(=O)N1CCC[C@H]1c1nc2ccc([C@H]3CC[C@H](c4ccc5nc([C@@H]6CCCN6C(=O)[C@@H](NC(=O)OC)C(C)C)[nH]c5c4)N3c3cc(F)c(N4CCC(c5ccccn5)CC4)c(F)c3)cc2[nH]1)C(C)C` [Example 2.13, methyl {(2S)-1-[(2S)-2-{5-[(2R,5R)-1-{3,5-difluoro-4-[4-(pyridin-2-yl)piperidin-1-yl]phenyl}-5-{2-[(2S)-1-{(2S)-2-[(methoxycarbonyl)amino]-3-methylbutanoyl}pyrrolidin-2-yl]-1H-benzimidazol-5-yl}pyrrolidin-2-yl]-1H-benzimidazol-2-yl}pyrrolidin-1-yl]-3-methyl-1-oxobutan-2-yl}carbamate], the EC50 is below 100 pM.

As to `COC(=O)N[C@H](C(=O)N1CCC[C@H]1c1nc2cc([C@H]3CC[C@H](c4cc5nc([C@@H]6CCCN6C(=O)[C@@H](NC(=O)OC)C6CCCC6)[nH]c5cc4F)N3c3cc(F)c(N4CCC(c5ccccc5)CC4)c(F)c3)c(F)cc2[nH]1)C1CCCC1` [Example 4.40, dimethyl ({(2R,5R)-1-[3,5-difluoro-4-(4-phenylpiperidin-1-yl)phenyl]pyrrolidine-2,5-diyl}bis{(6-fluoro-1H-benzimidazole-5,2-diyl)(2S)pyrrolidine-2,1-diyl[(1S)-1-cyclopentyl-2-oxoethane-2,1-diyl]})biscarbamate], the EC50 is below 100 pM.

As for `COC(=O)N[C@H](C(=O)N1CCC[C@H]1c1nc2cc([C@H]3CC[C@H](c4ccc5[nH]c([C@@H]6CCCN6C(=O)[C@@H](NC(=O)OC)C6CCCC6)nc5c4)N3c3cc(F)c(N4CCC(c5ccccc5)CC4)c(F)c3)ccc2[nH]1)C1CCCC1` [Example 3.24, dimethyl ({(2R,5R)-1-[3,5-difluoro-4-(4-phenylpiperidin-1-yl)phenyl]pyrrolidine-2,5-diyl}bis{1H-benzimidazole-5,2-diyl(2S)pyrrolidine-2,1-diyl[(1S)-1-cyclopentyl-2-oxoethane-2,1-diyl]})biscarbamate], the EC50 was below 100 pM.

Consider `COC(=O)N[C@H](C(=O)N1CCC[C@H]1c1ncc(-c2cccc(C3(c4cccc(-c5cnc([C@@H]6CCCN6C(=O)[C@@H](NC(=O)OC)C(C)C)[nH]5)c4)CN(c4ccc(C(C)(C)C)cc4)C3)c2)[nH]1)C(C)C` [Example 12.1, methyl {(2S)-1-[(2S)-2-(5-{3-[1-(4-tert-butylphenyl)-3-(3-{2-[(2S)-1-{(2S)-2-[(methoxycarbonyl)amino]-3-methylbutanoyl}pyrrolidin-2-yl]-1H-imidazol-5-yl}phenyl)azetidin-3-yl]phenyl}-1H-imidazol-2-yl)pyrrolidin-1-yl]-3-methyl-1-oxobutan-2-yl}carbamate], for which the EC50 was in the range of 1000 to 10000 pM.

As for `COC(=O)N[C@H](C(=O)N1CCC[C@H]1c1nc2cc([C@H]3CC[C@H](c4ccc5[nH]c([C@@H]6CCCN6C(=O)[C@@H](NC(=O)OC)C6CCOCC6)nc5c4)N3c3cc(F)c(N4CCC(c5ccccc5)CC4)c(F)c3)ccc2[nH]1)C1CCOCC1` [Example 3.23, dimethyl ({(2R,5R)-1-[3,5-difluoro-4-(4-phenylpiperidin-1-yl)phenyl]pyrrolidine-2,5-diyl}bis{1H-benzimidazole-5,2-diyl(2S)pyrrolidine-2,1-diyl [(1S)-2-oxo-1-(tetrahydro-2H-pyran-4-yl)ethane-2,1-diyl]})biscarbamate], the EC50 was below 100 pM.

As for `COC(=O)N[C@H](C(=O)N1CCC[C@H]1c1nc2cc([C@H]3CC[C@H](c4cc5nc([C@@H]6CCCN6C(=O)[C@@H](NC(=O)OC)C(C)C)[nH]c5cc4F)N3c3cc(F)c(N4CCC(c5ccc6ccccc6c5)CC4)c(F)c3)c(F)cc2[nH]1)C(C)C` [Example 4.30, methyl {(2S)-1-[(2S)-2-{5-[(2R,5R)-1-{3,5-difluoro-4-[4-(2-naphthyl)piperidin-1-yl]phenyl}-5-{6-fluoro-2-[(2S)-1-{(2S)-2-[(methoxycarbonyl)amino]-3-methylbutanoyl}pyrrolidin-2-yl]-1H-benzimidazol-5-yl}pyrrolidin-2-yl]-6-fluoro-1H-benzimidazol-2-yl}pyrrolidin-1-yl]-3-methyl-1-oxobutan-2-yl}carbamate], the EC50 is below 100 pM.

On to `COC(=O)N[C@H](C(=O)N1CCC[C@H]1c1nc2cc([C@H]3CC[C@H](c4ccc5[nH]c([C@@H]6CCCN6C(=O)[C@@H](NC(=O)OC)C6CCOCC6)nc5c4)N3c3ccc(N4CCC(c5ccccc5)CC4)c(F)c3)ccc2[nH]1)C(C)C` [Example 3.21, methyl [(1S)-2-[(2S)-2-{5-[(2R,5R)-1-[3-fluoro-4-(4-phenylpiperidin-1-yl)phenyl]-5-{2-[(2S)-1-{(2S)-2-[(methoxycarbonyl)amino]-3-methylbutanoyl}pyrrolidin-2-yl]-1H-benzimidazol-5-yl}pyrrolidin-2-yl]-1H-benzimidazol-2-yl}pyrrolidin-1-yl]-2-oxo-1-(tetrahydro-2H-pyran-4-yl)ethyl]carbamate], for which the EC50 is below 100 pM.

For the molecule `COC(=O)N[C@H](C(=O)N1CCC[C@H]1c1nc2ccc([C@H]3CC[C@H](c4ccc5nc([C@@H]6CCCN6C(=O)[C@@H](NC(=O)OC)C(C)C)[nH]c5c4)N3c3cc(F)c(N4CCC(F)(c5ccccc5)CC4)c(F)c3)cc2[nH]1)C(C)C` [Example 4.35, methyl {(2S)-1-[(2S)-2-{6-[(2R,5R)-1-[3,5-difluoro-4-(4-fluoro-4-phenylpiperidin-1-yl)phenyl]-5-{2-[(2S)-1-{(2S)-2-[(methoxycarbonyl)amino]-3-methylbutanoyl}pyrrolidin-2-yl]-1H-benzimidazol-6-yl}pyrrolidin-2-yl]-1H-benzimidazol-2-yl}pyrrolidin-1-yl]-3-methyl-1-oxobutan-2-yl}carbamate], the EC50 is below 100 pM.

Take `COC(=O)N[C@H](C(=O)N1C[C@H](OC)C[C@H]1c1nc2cc([C@H]3CC[C@H](c4ccc5[nH]c([C@@H]6C[C@@H](OC)CN6C(=O)[C@@H](NC(=O)OC)C(C)C)nc5c4)N3c3cc(F)c(N4CCCCC4)c(F)c3)ccc2[nH]1)C(C)C` [Example 5.5, methyl {(2S)-1-[(2S,4R)-2-{5-[(2R,5R)-1-[3,5-difluoro-4-(piperidin-1-yl)phenyl]-5-{2-[(2S,4R)-4-methoxy-1-{(2S)-2-[(methoxycarbonyl)amino]-3-methylbutanoyl}pyrrolidin-2-yl]-1H-benzimidazol-5-yl}pyrrolidin-2-yl]-1H-benzimidazol-2-yl}-4-methoxypyrrolidin-1-yl]-3-methyl-1-oxobutan-2-yl}carbamate]: the EC50 is below 100 pM.

Consider `COC(=O)N[C@H](C(=O)N1CCC[C@H]1c1nc2cc([C@H]3CC[C@H](c4ccc5[nH]c([C@@H]6CCCN6C(=O)[C@@H](NC(=O)OC)C(C)C)nc5c4)N3c3ccc(N4CCCCC4=O)cc3)ccc2[nH]1)C(C)C` [Example 1.2, methyl {(2S)-1-[(2S)-2-(5-{(2R,5R)-5-{2-[(2S)-1-{(2S)-2-[(methoxycarbonyl)amino]-3-methylbutanoyl}pyrrolidin-2-yl]-1H-benzimidazol-5-yl}-1-[4-(2-oxopiperidin-1-yl)phenyl]pyrrolidin-2-yl}-1H-benzimidazol-2-yl)pyrrolidin-1-yl]-3-methyl-1-oxobutan-2-yl}carbamate], for which the EC50 is above 10000 pM.

The EC50 is the concentration needed to bring the measured effect to its halfway point.
